Measured values reported in patent publication US4464300A, “Triazolo benzazepines” (Hoffmann-La Roche Inc., priority 1981, dated 1984).

How the values were obtained:
[1] = acute toxicity, single oral administration to mice; details: mouse, in vivo, p.o.
Source text: Some representative members of the class of compound defined by formula I have been investigated in the tests described below, and it has been shown that in rats and monkeys they display pronounced anxiolytic properties. Moreover, the Table contains data concerning the acute toxicity of these compounds (LD50 in the case of single oral administration to mice).

Anti-pentetrazole Test = format: in vivo, female mice; details: Mus musculus, po, 0.5 h; p.o., mice, 30 minutes before i.v. pentetrazole; dosage giving convulsive threshold ratio treated:untreated of 2:1; read-out: Anti-pentetrazole test, PR 2.0
Experimental: The compound to be tested is administered orally to groups of 6 female mice (19-21 g) and 30 minutes later there is administered intravenously (0.375 ml/minute) a 0.5 percent solution of pentetrazole in sodium chloride solution. The time from the beginning of the infusion until tonic stretchings of the hind limbs appear is measured and therefrom there is calculated the dosage of penetetrazole administered up to this point in time, which is denoted as the convulsive threshold dosage. The PR2.0 is that dosage of the test substance which is required in order that the ratio of the convulsive threshold dosage in treated animals to the convulsive threshold dosage in untreated animals amounts to 2:1.

[2] = Anti-3-mercaptopropionic Acid Test; format: in vivo, female mice; details: Mus musculus, po, 0.5 h; p.o., mice, 30 minutes before 48.8 mg/kg i.p. 3-mercaptopropionic acid; Probit method
Experimental: The compound to be tested is administered orally to female mice (19-21 g) and 30 minutes later there are administered i.p. 48.8 mg/kg of 3-mercaptopropionic acid, a dosage which in untreated animals causes after 4 minutes emprosthotonus and tonic stretching of the hind limbs. 12 mice are used per dosage. At least 6 to 8 different dosages are tested. The number of protected test animals per dosage group is determined and the ED50 is determined therefrom by means of the Probit method.

[3] = test system: spontaneous movements of rats; assay: Determination of the Motor Activity; format: in vivo; details: Rattus norvegicus, po, 2 hours, dosage which reduces mobility to 40% of untreated animals
Experimental: Groups each comprising three rats (200 g) are confined in large cages. The test animals can adapt themselves to the new surroundings for 30 minutes; subsequently the test substance is administered to them orally. The spontaneous movements are registered automatically for 2 hours by means of infrared light barriers. The ED40 is that dosage which reduces to 40% the mobility of the test animals in comparison to the untreated animals.

rats = assay: Conflict Test in Rats; format: in vivo; details: Rattus norvegicus, po, 30 minutes before 1-hour conflict test; Wilcoxon test; read-out: Conflict test in rats, FSD (first significant anxiolytically-effective dosage)
Experimental: The test apparatus is a one-key Skinner box with a feed pellet dispenser. For the testing of potential anxiolytics there are generally used 8 fasted rats per substance and dosage. In this case, there are used rats only which respond to the known anxiolytic chlordiazepoxide.
The test substances, which are dissolved or suspended in a mixture of 10 ml of distilled water and 2 drops of Tween 80, are administered to the test animals with the aid of a probang 30 minutes before the 1-hour conflict test. During the experiment, in which each key press for a feed pellet is combined with a foot-shock (conflict), the number of key operations is registered. In this case, each test animal serves as its own control, in that it is pre-treated once with test substance and once with sodium chloride solution.
The first significant anxiolytically-effective dosage (FSD) is determined with the Wilcoxon test (comparison of pairs) by comparing the number of key operations in the main test (feed pellet+foot-shock, after pre-treatment with test substance) directly with the number of key operations in the control test (feed pellet+foot-shock, after pre-treatment with sodium chloride solution).

squirrel monkeys = assay: Conflict Test in Monkeys; format: in vivo, male squirrel monkeys; details: for minimal effective dose: Saimiri, in Primates, po, read-out: Conflict test in monkeys, MED (smallest significant effective dosage); for Conflict test in monkeys, HED (highest significant effective dosage): p.o.
Experimental: A two-key Skinner box with a feed pellet dispenser is used as the test apparatus. 13 fasted, male squirrel monkeys weighing 0.8 to 1 kg are used as the test animals. Upon pressing one of the keys the test animals receive a feed pellet on average every 6 minutes. Upon pressing the other key the test animals receive a feed pellet four times more frequently (i.e. on average every 1.5 minutes), but they are simultaneously punished with an electric foot-shock. The foot-shock causes a reduction in the pressing of the key which gives more frequent feed pellets. […] The smallest (MED) and the highest significant effective dosage (HED) are thereby determined.

| Compound | LD50 [1] [mg/kg] | ED (2-fold convulsive threshold) (Anti-pentetrazole Test) [mg/kg] | ED50 [2] [mg/kg] | ED40 [3] [mg/kg] | minimal effective dose (rats) [mg/kg] | minimal effective dose (squirrel monkeys) [mg/kg] | Conflict test in monkeys, HED (highest significant effective dosage) (squirrel monkeys) [mg/kg] |
| --- | --- | --- | --- | --- | --- | --- | --- |
| Cc1nnc2n1-c1ccc(Cl)cc1C(c1ccccc1F)=CC2 [Compound C, 8-chloro-6-(2-fluorophenyl)-1-methyl-4H-s-triazolo[4,3-a][1]benzazepine] | > 5000 | 4 | 1.9 | 77 | 3 | 10 | > 80 |
| O=c1[nH]nc2n1-c1ccc(Cl)cc1C(c1ccccc1F)=CC2 [Compound A, 8-chloro-6-(2-fluorophenyl)-2,4-dihydro-1H-s-triazolo[4,3-a][1]benzazepin-1-one] | > 5000 | 4.1 | 6 | > 300 | 3 | 1.25 | > 80 |
| NCc1nnc2n1-c1ccc(Cl)cc1C(c1ccccc1F)=CC2 [Compound B, 1-(aminomethyl)-8-chloro-6-(2-fluorophenyl)-4H-s-triazolo[4,3-a][1]benzazepine] | 1000 to 2000 | 5.8 | 3.7 | > 100 | 100 | 1.25 | 10 |
